In paper PMC6102549, “Synthesis and Evaluation of C15 Triene Urushiol Derivatives as Potential Anticancer Agents and HDAC2 Inhibitor” (Molecules : A Journal of Synthetic Chemistry and Natural …, 2018):

What was measured:
HepG2 cells [1] = test: Annexin-V FITC/PI double staining for apoptosis (flow cytometry); format: cell-based, human; conditions: 72 h
Procedure: After treating HepG2 cells with three concentrations of compound 1 for 72 h, flow cytometry was used to detect the apoptosis rate changes. […]
(§1) Detection of apoptosis by Annexin-V FITC/PI double staining
(1) inoculate the logarithmic growth cells into the six-hole plate. The next day, after the cells are adhered to the wall, according to the group . […]
(§2) (2) after 72 hours of treatment, the cells were digested with 0.25% trypsin (excluding […]
(§3) (3) 5 × 10 ~ 5 cells were collected by PBS washing cells twice (centrifugation 2000rpm for 5 […]
(4) adding 500 μ L Binding Buffer suspension cells;
(5) After adding 5 μ L Annexin V-FITC, adding 5 μ L Pi, mixing;
(6) at room temperature, no light, the reaction time was 5 ~ 15 min, and the apoptosis was detected by flow cytometry. […]

HepG2 cells [2] = test: Calcium content detection (Fluo-3 probe, flow cytometry); format: cell-based, human; conditions: for Mean (calcium, Fluo-3 fluorescence): 72 h
Procedure: Calcium content detection
(1) inoculate the logarithmic growth cells into the six-hole plate. The next day, after the cells are adhered to the wall, according to the group . The culture medium containing medicine was added and the negative control group was set up at the same time.
as §2, §3
(4) adding 5 μ M Fluo-3 probe and mixing it to 37 degrees to avoid light for 30 min;

HepG2 cells [3] = test: PI single staining assay for cell cycle (flow cytometry); format: cell-based, human; conditions: for G1 (%) / G2 (%) / S (%): 72 h
Procedure: After the cells were tested with three different doses of Compound 1 (1, 3, and 12 μM), they were collected and detected by flow cytometry. […] Compared with the blank control group, the proportion of cells in G0/G1 phase of each dose of compound 1 increased gradually, but both the percentage of S stage cells and the proportion of cells in G2/M stage decreased to some extent. […]
Detection of cell cycle by PI single staining
1, the logarithmic growth phase were digested and inoculated into six well plates, the next day, after the cells adhered, according to the group set to join the corresponding drug containing medium, and the establishment of the negative control group; 2, after the action of 72h, the cells were digested with 0.25% pancreatin (not containing […]
3, 5 x 10^5 cells were collected by PBS scrubbing cells (centrifuge 2000rpm, 5min).
4, the single cell suspension prepared was fixed for 2 hours (or overnight) with a volume fraction of 70% ethanol, and stored at 4 ℃. Before washing, PBS was used to remove the fixative solution (if needed, cell suspension was filtered through 200 mesh mesh).
5 plus 100 mu L RNase A 37 ℃ water bath 30min;
6, adding 400 L PI dyeing and avoiding light 30min at 4 ℃.
7 check the machine and record the red fluorescence at the excitation wavelength of 488nm. […]

HDAC2 = test: Western blot of HDAC2 expression in HepG2 cells; format: cell-based, human; conditions: versus hepatoma cell group, p < 0.05
From the text: The total protein was extracted from the logarithmic growth phase of hepatoma HepG2 cell line, and the expression of HDAC2 was detected by Western blot method with urushiol derivative compound 1(see Figure 3). […] The mechanism was probably related to the inhibition of HDAC2 expression.
(§4) Detection of cell proliferation by MTT
(§5) MTT assay was used to determine the inhibitory effect of the sample on the proliferation of HepG2 cells. The tumor cells of logarithmic growth stage were inoculated with 3.5 * 103 / well in 96 well culture plate. 0.2 ml/pore system was cultured for 72 h with different concentrations of samples. Then 20μL(final concentration 0.5 mg / mL) of MTT were added to each pore for 4 h. The supernatant was carefully adsorbed, DMSO 0.15 mL was added to each pore, and oscillatory mixing was carried out. The absorbance (A) value at 490 nm wavelength was measured by enzyme labeling instrument. The inhibition rate of cell proliferation was calculated as follows: [(A value of negative control group-A value of blank group)-(A value of experimental group A value of blank group)] / (negative pair group A-A value of blank group) × 100.Statistical method. The statistical analysis was carried out by SPSS 17.0 statistical software. The measured data were described by x ±s, and the mean of the two samples was compared with t test (P < 0. 05).
(§6) Materials and methods: Main reagents and instruments […]

LO2 cells = test: MTT assay, toxic effect on normal liver cells LO2; format: cell-based; conditions: in vitro
Procedure: (§7) As shown in Figure 1 and Table 1, compounds 1–16 were evaluated for their inhibitory effects on the proliferation of HepG2 and LO2 cells by MTT assay. […] It provided the experimental basis for the subsequent synthesis of attenuating and improving urushiol derivatives.
as §4, §5, §6
(§8) Full-range rainbow […]
(§9) The HepG2 cells were cultured in a saturated humidity incubator with 90% […]
(§10) Jiangsu Kaiji Biotechnology Co., Ltd. Main reagents and consumables Cell culture bottle […]
(§11) Cell proliferation measured by MTT
(§12) 1) the cells were digested and counted, the cell suspension was prepared by 3 x 10^4 /ml, and 100 micron L cell suspension was added to each hole in the 96 hole cell culture plate.
(§13) 2) 96 hole cell culture plate was placed in 37, 5%, CO2 culture box for 24 hours.
(§14) 3) use the medium to dilute the drug to the desired working fluid concentration, add 100 micron l per hole to the corresponding drug medium, and establish a negative control group and a positive control group (paclitaxel, 20ug/ml).
(§15) 4) 96 hole cell culture plate was placed at 37 ℃ and 5% CO2 incubator for 72 hours.
(§16) 5) 96 hole board for MTT staining, lambda =490nm, OD value determination; a. 20 μL MTT (5mg/ml) per hole was added to the culture box for 4 hours. b. discarding the supernatant, adding 150 μL DMSO for each hole, and gently mixing the […]
(§17) c. lambda =490nm, ELISA od readout per hole, the inhibition rate was calculated.
(§18) 6) calculate the inhibition rate of each group.The inhibition rate (%) = (negative control group OD value of experimental group / OD) negative control group OD x 100% […]
(§19) 7 check the machine and record the red fluorescence at the excitation wavelength of 488nm.
as §1
(§20) (1) inoculate the logarithmic growth cells into the six-hole plate. The next day, after the cells are adhered to the wall, according to the group . The culture medium containing medicine was added and the negative control group was set up at the same time
as §2
(§21) (3) 5 × 10 ~ 5 cells were collected by PBS washing cells twice (centrifugation 2000rpm for 5

HepG2 cells [4] = test: Morphological observation of HepG2 cells; format: cell-based, human; conditions: 6.25, 25 and 50 μM
Procedure: The mortality rate of HepG2 cells was increasing faster on higher concentration of compound 1. The inhibition of cell proliferation strengthened over time. […] The cells became round, the volume became smaller and the refraction decreased. When the cells were treated with high concentration of compound 1, the cells were suspended and shed. The cells no longer adhered to the wall. They gradually became round, and the membrane ruptured, shrank and finally lost vitality.

HepG2 cells [5] = test: MTT assay, inhibition of proliferation of HepG2 cells; format: cell-based, human; conditions: for IC50: in vitro, 72 h
Procedure: as §7, §4, §5, §6, §8, §9, §10, §11, §12, §13, §14, §15, §16, §17, §18, §19, §1, §20, §2, §21

HepG2 cells [6] = test: JC-1 staining assay of mitochondrial membrane potential; format: cell-based, human
Procedure: Detection of mitochondrial membrane potential by JC-1 staining
1inoculate the logarithmic growth cell digestion into the six-hole plate, the next day, after the cells adhered to the wall, according to the group set up to add the corresponding drug medium, and set up a negative control group at the same time;
(2) the cell concentration was collected and adjusted to 1 × 10^6 / ml by PBS washing (centrifugation 2000rpm for 5 min);
(3) 100 μ L 10 × Incubation Buffer and 900 μ L sterilized deionized water were diluted to 1 × Incubation buffer, and then preheated to 37 ℃;
(4) 500 μ L 1 × Incubation buffer was absorbed and 1 μ L JC-1 was added to prepare JC-1 […]
(5) the cells were incubated in a incubator containing CO 2 at 37 ℃ for 15 ~ 20 min with […]
(6) the cells were collected by centrifugation at room temperature for 5 min and washed twice with 1 × Incubation Buffer.
(7) resuspension cells of 500 μ L 1 × Incubation Buffer;
(8) on the computer test. […]

## C/C=C\C=C\C/C=C\CCCCCCCc1cccc(O)c1O[Si](CCCS)(OC)OC [Compound 1]
HepG2 cells [1]; HepG2, 1 μm
  Apoptosis (%): 15.73%
  LL (%): 82.71%
  LR (%): 9.38%
  UL (%): 1.56%
  UR (%): 6.35%
HepG2 cells [1]; HepG2, 3 μm
  Apoptosis (%): 32.60%
  LL (%): 67.33%
  LR (%): 16.42%
  UL (%): 0.07%
  UR (%): 16.18%
HepG2 cells [1]; HepG2, 12 μm
  Apoptosis (%): 47.87%
  LL (%): 48.91%
  LR (%): 37.68%
  UL (%): 3.24%
  UR (%): 10.19%
HepG2 cells [2]; HepG2, 1 μm
  Mean (calcium, Fluo-3 fluorescence): 65.01
HepG2 cells [2]; HepG2, 3 μm
  Mean (calcium, Fluo-3 fluorescence): 94.39
HepG2 cells [2]; HepG2, 12 μm
  Mean (calcium, Fluo-3 fluorescence): 136.80
HepG2 cells [2]; HepG2, compared with blank control group
  intracellular calcium concentration (in words): increased
HepG2 cells [3]; HepG2, 1 μM
  G1 (%): 54.48%
  G2 (%): 15.79%
  S (%): 29.72%
HepG2 cells [3]; HepG2, 3 μM
  G1 (%): 60.17%
  G2 (%): 13.64%
  S (%): 26.19%
HepG2 cells [3]; HepG2, 12 μM
  G1 (%): 65.80%
  G2 (%): 13.79%
  S (%): 20.40%
HepG2 cells [3]; HepG2, 1, 3 and 12 μM
  effect on cell cycle (in words): block cells in G0/G1 phase
HDAC2
  expression of HDAC2 protein (in words): significantly lower
LO2 cells; Homo sapiens, L02, 72 h
  IC50: 150 µM
LO2 cells; 72 h
  IC50: 151 µM
HepG2 cells [4]
  proliferation of HepG2 cells by morphological observation (in words): gradually inhibited
HepG2 cells [5]
  inhibitory activity on HepG2 cells proliferation (in words): strong
  IC50: 7.88 µM
HepG2 cells [5]; Homo sapiens, HepG2, 72 h
  IC50: 7.89 µM
HepG2 cells [6]; HepG2, JC-1, 12 μM
  UR % Gated: 46.18%
HepG2 cells [6]; HepG2, JC-1, 1 μm
  Green Fluorescence (%) (LR % gated): 16.72%
HepG2 cells [6]; HepG2, JC-1, 3 μm
  Green Fluorescence (%) (LR % gated): 28.14%
HepG2 cells [6]; HepG2, JC-1, 12 μm
  Green Fluorescence (%) (LR % gated): 53.82%

## C/C=C\C=C\C/C=C\CCCCCCCc1cccc2c1OB(C(=O)C(F)(F)C(F)(F)F)O2 [Compound 2]
LO2 cells; Homo sapiens, L02, 72 h
  IC50: > 200 µM
HepG2 cells [5]; Homo sapiens, HepG2, 72 h
  IC50: 198 µM

## C#CCOc1c(O)cccc1CCCCCCC/C=C\C/C=C/C=C\C [Compound 3]
LO2 cells; Homo sapiens, L02, 72 h
  IC50: > 200 µM
HepG2 cells [5]; Homo sapiens, HepG2, 72 h
  IC50: > 200 µM

## C/C=C\C=C\C/C=C\CCCCCCCc1cccc2c1OB(c1ccccc1)O2 [Compound 4]
LO2 cells; Homo sapiens, L02, 72 h
  IC50: 181 µM
HepG2 cells [5]
  inhibitory activity on HepG2 cells proliferation (in words): strong
  IC50: 15.3 µM

## C/C=C\C=C\C/C=C\CCCCCCCc1cccc2c1OB(c1ccncc1)O2 [Compound 5]
LO2 cells; Homo sapiens, L02, 72 h
  IC50: > 200 µM
HepG2 cells [5]; Homo sapiens, HepG2, 72 h
  IC50: 180 µM

## C/C=C\C=C\C/C=C\CCCCCCCc1cccc2c1OB(c1ccnc(F)c1)O2 [Compound 6]
LO2 cells; Homo sapiens, L02, 72 h
  IC50: > 200 µM
HepG2 cells [5]; Homo sapiens, HepG2, 72 h
  IC50: > 200 µM
